Measured values reported in US20220241261A1, “COMBINATIONS OF INHIBITORS OF IRAK4 WITH INHIBITORS OF BTK” (Bayer Pharma Aktiengesellschaft, priority 2015, published 2022).

Assays:
[1] = test system: ABC-DLBCL cell lines TMD-8 and HBL-1 and OCI-LY10; assay: Cell proliferation measurement (Cell Titer Glo, combination, isobolograms); type: cell-based, human; settings: combination with ibrutinib or RN486 or AVL-292 or CGI-1746; TMD-8, HBL-1, OCI-LY10 cells; 72 h
Experimental: The antiproliferative activity of the compounds of the general formula (I) as constituents of the inventive combinations was examined in vitro in human ABC-DLBCL cells. […] After 24 h, cells on one plate (0 h plate) were treated with 30 μl/cavity of CTG solution (Promega Cell Titer Glo (catalogue #G755B and G756B)) and incubated at room temperature for 10 min, and luminescence was measured by means of a VICTOR V (Perkin Elmer), in order to determine cell viability on commencement of treatment. The cells on the test plate were treated with the compounds of the general formula (I) as constituents of the inventive combinations and incubated at 37° C. for 72 h. […] As control, the cells were treated with vehicle (DMSO). After 72 h, the cells were treated with 30 μl/cavity of CTG solution (Promega Cell Titer Glo (catalogue #G755B and G756B)) and incubated at room temperature for 10 min, and luminescence was measured by means of a VICTOR V (Perkin Elmer), in order to determine cell viability at the end of treatment. […] The IC50 values were calculated using a 4-parameter fit. The combinatorial effect to test substances was determined on the basis of the above-described IC50 determination. […] This index allows a quantitative determination of substance interactions. A CI<1, =1, and >1 respectively describe synergistic, additive and antagonistic effects. […]

[2] = test system: secretion of TNF-α in THP-1 cells; assay: TNF-α secretion in THP-1 cells (LPS-triggered, HTRF); type: cell-based; settings: Homo sapiens, LPS stimulation, 17 h, read-out: IC50 with respect to the secretion of TNF-α in THP-1 cells
Experimental: With the aid of this test, it is possible to test substances for their ability to inhibit secretion of TNF-α (tumour necrosis factor alpha) in THP-1 cells (human monocytic acute leukaemia cell line). […] In this test, TNF-α secretion is triggered by incubation with bacterial lipopolysaccharide (LPS).
The cells were incubated at room temperature for 15 min. 2-2.5 of 0.1 μg/ml LPS (Sigma, Escherichia coli 055:B5, Cat. No. L5418) dissolved in cell culture medium (final concentration 0.05 ag/ml) were then dispensed into each well. As a neutral control, cells were treated with 0.05 ag/ml LPS and 1% DMSO and, as inhibitor control, only once with 1% DMSO.
The amount of TNF-α was determined using the TNF-alpha HTRF Detection Kit (Cisbio, Cat No. 62TNFPEB/C). To this end, in each case 2 μl of the detection solution consisting of anti-TNF-α-XL665 conjugate and anti-TNF-α-cryptate conjugate, dissolved in accordance with the manufacturer's instructions in the reconstitution buffer, were added for the HTRF (Homogeneous Time-Resolved Fluorescence) test. After the addition, the mixture was incubated either at room temperature for 3 h or at 4° C. overnight.
The activity of the substances is expressed as the ratio between neutral and inhibitor control in percent. The IC50 values were calculated using a 4-parameter fit.

relapsed DLBCL = settings: phase 2 study; cited from earlier work
[3] = test system: human TMD-8 ABC-DLBCL tumours; settings: TMD-8 xenograft, C.B-17 SCID mice, ibrutinib 10 mg/kg
Experimental: The anti-tumour activity of the compounds of the general formula (I) as constituents of the inventive combinations was examined in murine xenotransplantation models. For this purpose, female C.B-17 SCID mice were implanted subcutaneously with tumour cell lines of human B-cell lymphoma, e.g. TMD-8. At a mean tumour size of 20-30 mm^2, monotherapeutic treatment or treatment in combination with the standard ibrutinib treatment commenced, each of which were administered orally. This was preceded by randomization of the animals. […] The tumour size and the body weight were determined weekly for three weeks. Changes in the body weight were a measure of treatment-related toxicity (>10%=critical, stoppage in treatment until recovery, >20%=toxic, termination). The tumour area was detected by means of an electronic caliper gauge [length (mm)×width (mm)]. The anti-tumour efficacy defined the ratio of the tumour area of treatment versus control [tumour area of the treatment group on day X/tumour area of the control group on day X]. […] Statistical analysis was effected using single-factor ANOVA and comparison with the control group by means of pair-by-pair comparative analysis (Dunnett's test).
TMD-8 tumour cells were implanted subcutaneously on day 0 into female C.B-17 SCID mice. The treatment was started on day 15 at a tumour area of about 26 mm^2. […]

SMILES	antitumour (anti-proliferative) action of the combination compared to single treatments [1]	IC50 [2] [nM]	patients responded to treatment (relapsed DLBCL) [%]	Max. weight loss ([3]; QD p.o., Example 11 40 mg/kg, change versus initial body weight) [%]	effect on the tumour growth of TMD-8 (in words) ([3]; oral daily, Example Compound 11 40 mg/kg)
CC(C)(O)CCn1cc2cc(NC(=O)c3cccc(C(F)F)n3)c(C(C)(C)O)cc2n1 [Example 13, 6-(Difluoromethyl)-N-[2-(3-hydroxy-3-methylbutyl)-6-(2-hydroxypropan-2-yl)-2H-indazol-5-yl]pyridine-2-carboxamide]	distinct rise in antitumour action was almost always recorded	100			
Cc1nc(C(=O)Nc2cc3cn(CCC(C)(C)O)nc3cc2C(C)(C)O)ccc1F [Example 19, 5-Fluoro-N-[2-(3-hydroxy-3-methylbutyl)-6-(2-hydroxypropan-2-yl)-2H-indazol-5-yl]-6-methylpyridine-2-carboxamide]	distinct rise in antitumour action was almost always recorded	100			
C=CC(=O)N1CCC[C@@H](n2nc(-c3ccc(Oc4ccccc4)cc3)c3c(N)ncnc32)C1 [Ibrutinib, 1-{(3R)-3-[4-amino-3-(4-phenoxyphenyl)-1H-pyrazolo[3,4-d]pyrimidin-1-yl]piperidin-1-yl}prop-2-en-1-one]			40	−5	moderate inhibitory effect
